Results taken from the kinase profiling compilation of Christmann-Franck et al. (2016).

Assays:
Test in all cases: KINOMEscan competition binding
Conditions in all cases: compound 0.5 µM
MELK (human) = MELK (human) (UniProt Q14680)
CDK11B (human) = CDK11B (human) (UniProt P21127)
CDK2 (human) = CDK2 (human) (UniProt P24941)
CSNK1A1L (human) = CSNK1A1L (human) (UniProt Q8N752)
MAP2K3 (human) = MAP2K3 (human) (UniProt P46734)
SIK3 (human) = SIK3 (human) (UniProt Q9Y2K2)
GRK7 (human) = GRK7 (human) (UniProt Q8WTQ7)
[1] = system: PIK3CA (human), P42336 [E545A]
NUAK2 (human) = NUAK2 (human) (UniProt Q9H093)
NEK2 (human) = NEK2 (human) (UniProt P51955)
CDC2L2 (human) = CDC2L2 (human) (UniProt Q9UQ88)
CDK16 (human) = CDK16 (human) (UniProt Q00536)
[2] = target: JAK1 JH2 pseudokinase (human) (UniProt P23458)
NIM1 (human) = NIM1 (human) (UniProt Q8IY84)
Sequence of NIM1 (human) (Q8IY84 whole entry, looked up): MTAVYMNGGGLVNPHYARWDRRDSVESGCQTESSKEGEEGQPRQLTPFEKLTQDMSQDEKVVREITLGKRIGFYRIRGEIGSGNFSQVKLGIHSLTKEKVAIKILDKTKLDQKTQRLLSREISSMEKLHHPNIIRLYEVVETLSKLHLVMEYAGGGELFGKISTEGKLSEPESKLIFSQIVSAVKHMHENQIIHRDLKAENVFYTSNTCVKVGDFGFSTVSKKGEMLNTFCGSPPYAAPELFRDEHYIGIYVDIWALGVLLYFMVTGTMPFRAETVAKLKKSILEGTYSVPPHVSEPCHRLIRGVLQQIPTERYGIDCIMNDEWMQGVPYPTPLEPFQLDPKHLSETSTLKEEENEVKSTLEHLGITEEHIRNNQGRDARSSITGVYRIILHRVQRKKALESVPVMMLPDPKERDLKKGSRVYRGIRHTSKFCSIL

TNK2 (human) = TNK2 (human) (UniProt Q07912)
[3] = system: RET (human), P07949 [V804L]
Sequence of RET (human), P07949 [V804L] (P07949 whole entry V804L, looked up): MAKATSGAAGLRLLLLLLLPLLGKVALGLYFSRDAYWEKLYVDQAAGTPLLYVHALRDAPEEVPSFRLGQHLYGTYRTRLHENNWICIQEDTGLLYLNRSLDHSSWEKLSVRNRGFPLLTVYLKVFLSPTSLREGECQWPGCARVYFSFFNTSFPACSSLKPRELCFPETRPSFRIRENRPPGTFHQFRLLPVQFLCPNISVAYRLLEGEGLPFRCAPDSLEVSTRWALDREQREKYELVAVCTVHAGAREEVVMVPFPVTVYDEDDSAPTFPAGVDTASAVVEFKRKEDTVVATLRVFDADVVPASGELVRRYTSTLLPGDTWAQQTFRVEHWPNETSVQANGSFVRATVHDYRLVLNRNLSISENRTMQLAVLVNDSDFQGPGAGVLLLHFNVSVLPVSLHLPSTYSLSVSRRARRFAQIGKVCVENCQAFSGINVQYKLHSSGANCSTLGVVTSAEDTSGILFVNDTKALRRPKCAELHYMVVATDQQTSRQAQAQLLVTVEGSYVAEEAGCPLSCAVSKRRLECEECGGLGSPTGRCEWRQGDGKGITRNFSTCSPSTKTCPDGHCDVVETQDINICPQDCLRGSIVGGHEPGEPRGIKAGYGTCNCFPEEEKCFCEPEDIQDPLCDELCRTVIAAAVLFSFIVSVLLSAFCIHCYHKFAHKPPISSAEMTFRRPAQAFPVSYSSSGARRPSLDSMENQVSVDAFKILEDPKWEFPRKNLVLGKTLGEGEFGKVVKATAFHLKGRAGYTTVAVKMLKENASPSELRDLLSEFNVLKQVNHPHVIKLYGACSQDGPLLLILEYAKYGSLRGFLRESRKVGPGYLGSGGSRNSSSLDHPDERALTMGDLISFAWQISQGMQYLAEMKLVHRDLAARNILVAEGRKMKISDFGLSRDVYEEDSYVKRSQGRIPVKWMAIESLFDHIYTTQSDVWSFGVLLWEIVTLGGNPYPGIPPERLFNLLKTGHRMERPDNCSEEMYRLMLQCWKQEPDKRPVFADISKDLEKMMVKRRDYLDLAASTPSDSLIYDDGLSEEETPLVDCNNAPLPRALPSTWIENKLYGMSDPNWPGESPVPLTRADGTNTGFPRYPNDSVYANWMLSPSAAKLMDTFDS

[4] = system: FLT3 (human), P36888 [D835H]
SGK110 (human) = SGK110 (human) (UniProt P0C264)
Sequence of SGK110 (human) (P0C264 whole entry, looked up): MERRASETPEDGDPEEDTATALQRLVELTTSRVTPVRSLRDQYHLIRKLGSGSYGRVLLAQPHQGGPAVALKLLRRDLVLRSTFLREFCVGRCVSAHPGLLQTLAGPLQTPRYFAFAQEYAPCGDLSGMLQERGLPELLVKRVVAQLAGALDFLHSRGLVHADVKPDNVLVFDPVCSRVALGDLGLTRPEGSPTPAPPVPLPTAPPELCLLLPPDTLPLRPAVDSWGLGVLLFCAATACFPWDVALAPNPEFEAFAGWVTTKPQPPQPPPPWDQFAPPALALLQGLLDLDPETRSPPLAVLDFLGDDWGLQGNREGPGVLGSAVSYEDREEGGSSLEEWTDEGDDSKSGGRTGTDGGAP

PAK6 (human) = PAK6 (human) (UniProt Q9NQU5)
FRK (human) = FRK (human) (UniProt P42685)
STK38 (human) = STK38 (human) (UniProt Q15208)
Sequence of STK38 (human) (Q15208 whole entry, looked up): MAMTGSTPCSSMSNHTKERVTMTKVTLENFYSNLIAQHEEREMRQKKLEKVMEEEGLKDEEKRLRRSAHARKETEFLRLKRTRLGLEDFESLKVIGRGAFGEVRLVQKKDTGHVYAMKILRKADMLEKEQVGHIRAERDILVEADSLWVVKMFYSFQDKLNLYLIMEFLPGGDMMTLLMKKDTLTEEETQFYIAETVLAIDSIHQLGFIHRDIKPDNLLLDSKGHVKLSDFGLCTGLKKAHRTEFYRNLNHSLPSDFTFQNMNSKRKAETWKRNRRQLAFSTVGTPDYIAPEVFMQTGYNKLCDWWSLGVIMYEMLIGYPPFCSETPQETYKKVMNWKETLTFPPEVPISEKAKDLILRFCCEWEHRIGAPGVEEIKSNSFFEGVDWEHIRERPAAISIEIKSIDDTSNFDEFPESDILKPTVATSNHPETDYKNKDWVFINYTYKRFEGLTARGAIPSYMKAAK

CHEK2 (human) = CHEK2 (human) (UniProt O96017)
PRKAA1 (human) = PRKAA1 (human) (UniProt Q13131)
PKN3 (M.tuberculosis) = PKN3 (M.tuberculosis) (UniProt Q6P5Z2)
ROCK1 (human) = ROCK1 (human) (UniProt Q13464)
ADCK3 (human) = ADCK3 (human) (UniProt Q8NI60)
PAK2 (human) = PAK2 (human) (UniProt Q13177)
RPS6KA2 KD1 (human) = RPS6KA2 KD1 (human) (UniProt Q15349)
Sequence of RPS6KA2 KD1 (human) (Q15349 whole entry, looked up): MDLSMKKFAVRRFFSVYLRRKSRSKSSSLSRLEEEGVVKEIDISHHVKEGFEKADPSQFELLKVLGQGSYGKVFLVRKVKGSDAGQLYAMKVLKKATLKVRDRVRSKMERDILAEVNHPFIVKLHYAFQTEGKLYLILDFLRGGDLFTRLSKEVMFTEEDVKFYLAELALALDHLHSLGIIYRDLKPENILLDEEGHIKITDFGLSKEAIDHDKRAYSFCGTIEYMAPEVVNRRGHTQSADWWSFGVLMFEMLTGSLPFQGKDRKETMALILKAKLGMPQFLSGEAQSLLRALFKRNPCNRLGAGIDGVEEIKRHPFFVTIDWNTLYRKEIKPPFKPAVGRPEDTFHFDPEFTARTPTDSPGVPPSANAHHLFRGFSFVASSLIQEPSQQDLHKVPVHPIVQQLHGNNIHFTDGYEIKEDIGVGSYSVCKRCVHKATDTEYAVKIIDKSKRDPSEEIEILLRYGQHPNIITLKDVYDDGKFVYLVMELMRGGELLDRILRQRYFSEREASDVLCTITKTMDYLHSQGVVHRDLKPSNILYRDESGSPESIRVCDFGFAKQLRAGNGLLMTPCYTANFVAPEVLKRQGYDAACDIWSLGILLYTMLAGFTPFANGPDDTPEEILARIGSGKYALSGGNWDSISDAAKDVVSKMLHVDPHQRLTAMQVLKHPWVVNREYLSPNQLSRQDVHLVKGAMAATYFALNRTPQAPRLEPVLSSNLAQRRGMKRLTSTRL

FES (human) = FES (human) (UniProt P07332)
MAP2K4 (human) = MAP2K4 (human) (UniProt P45985)
DCLK2 (human) = DCLK2 (human) (UniProt Q8N568)
CDC42BPA (human) = CDC42BPA (human) (UniProt Q5VT25)
TESK1 (human) = TESK1 (human) (UniProt Q15569)
[5] = system: LRRK2 (human), Q5S007 [G2019S]
AURKB (human) = AURKB (human) (UniProt Q96GD4)
FGFR1 (human) = FGFR1 (human) (UniProt P11362)
MATK (human) = MATK (human) (UniProt P42679)
Sequence of MATK (human) (P42679 whole entry, looked up): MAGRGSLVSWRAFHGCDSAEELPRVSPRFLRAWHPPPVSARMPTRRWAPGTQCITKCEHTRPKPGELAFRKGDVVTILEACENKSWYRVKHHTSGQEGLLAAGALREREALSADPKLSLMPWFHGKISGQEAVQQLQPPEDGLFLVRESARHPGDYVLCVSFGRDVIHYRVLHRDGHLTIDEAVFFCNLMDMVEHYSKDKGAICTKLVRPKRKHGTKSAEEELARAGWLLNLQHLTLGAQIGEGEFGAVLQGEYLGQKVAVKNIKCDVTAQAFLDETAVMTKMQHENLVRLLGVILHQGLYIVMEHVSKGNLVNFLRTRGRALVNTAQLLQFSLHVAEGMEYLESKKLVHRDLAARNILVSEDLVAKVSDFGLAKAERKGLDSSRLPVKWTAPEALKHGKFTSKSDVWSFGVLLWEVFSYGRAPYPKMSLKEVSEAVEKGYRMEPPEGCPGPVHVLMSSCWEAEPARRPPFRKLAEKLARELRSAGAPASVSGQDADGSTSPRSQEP

DYRK1A (human) = DYRK1A (human) (UniProt Q13627)
TSSK1B (human) = TSSK1B (human) (UniProt Q9BXA7)
BTK (human) = BTK (human) (UniProt Q06187)
LATS2 (human) = LATS2 (human) (UniProt Q9NRM7)
SBK1 (human) = SBK1 (human) (UniProt Q52WX2)

Sequence of SIK3 (human) (Q9Y2K2 whole entry, looked up): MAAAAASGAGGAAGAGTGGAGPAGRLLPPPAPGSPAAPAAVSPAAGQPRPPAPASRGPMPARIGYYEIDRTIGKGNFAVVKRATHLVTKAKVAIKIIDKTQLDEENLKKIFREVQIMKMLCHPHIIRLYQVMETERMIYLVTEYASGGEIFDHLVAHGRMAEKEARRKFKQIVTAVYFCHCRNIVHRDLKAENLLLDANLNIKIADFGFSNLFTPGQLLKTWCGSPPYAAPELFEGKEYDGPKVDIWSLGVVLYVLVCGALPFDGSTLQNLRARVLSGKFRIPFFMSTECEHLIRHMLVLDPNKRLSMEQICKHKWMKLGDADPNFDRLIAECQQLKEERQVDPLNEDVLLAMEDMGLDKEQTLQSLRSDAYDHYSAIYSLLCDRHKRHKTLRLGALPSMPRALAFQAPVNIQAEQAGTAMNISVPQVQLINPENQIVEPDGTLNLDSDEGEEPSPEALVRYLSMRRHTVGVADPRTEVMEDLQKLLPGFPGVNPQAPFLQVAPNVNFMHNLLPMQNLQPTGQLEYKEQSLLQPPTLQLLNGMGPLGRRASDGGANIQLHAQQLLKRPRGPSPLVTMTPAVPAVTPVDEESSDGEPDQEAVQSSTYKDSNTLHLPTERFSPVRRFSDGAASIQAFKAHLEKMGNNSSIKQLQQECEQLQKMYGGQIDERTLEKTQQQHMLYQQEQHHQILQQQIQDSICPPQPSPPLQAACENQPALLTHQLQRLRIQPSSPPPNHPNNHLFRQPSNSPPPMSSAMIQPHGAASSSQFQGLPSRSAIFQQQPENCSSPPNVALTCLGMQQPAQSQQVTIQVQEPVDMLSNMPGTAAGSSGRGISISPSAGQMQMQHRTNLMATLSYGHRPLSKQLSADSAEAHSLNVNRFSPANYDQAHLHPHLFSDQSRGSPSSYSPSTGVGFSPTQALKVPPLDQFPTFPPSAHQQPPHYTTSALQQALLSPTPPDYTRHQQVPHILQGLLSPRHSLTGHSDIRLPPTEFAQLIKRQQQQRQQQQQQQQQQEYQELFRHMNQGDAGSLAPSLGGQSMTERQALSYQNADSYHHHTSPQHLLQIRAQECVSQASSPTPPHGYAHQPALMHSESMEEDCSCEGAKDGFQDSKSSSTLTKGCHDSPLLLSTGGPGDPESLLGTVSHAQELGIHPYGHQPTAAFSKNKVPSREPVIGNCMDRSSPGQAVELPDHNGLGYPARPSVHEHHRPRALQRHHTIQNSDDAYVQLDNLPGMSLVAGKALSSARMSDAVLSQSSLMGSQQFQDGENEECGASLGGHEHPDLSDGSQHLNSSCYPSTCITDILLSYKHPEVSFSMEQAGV

Cn1c2ccccc2c2c3c(c4c5ccccc5n(CCC#N)c4c21)CNC3=O showed a kinase still bound, per cent of control (MELK (human)) of 22%, a kinase still bound, per cent of control (CDK11B (human)) of 100% and a kinase still bound, per cent of control (CDK2 (human)) of 36%. The kinase still bound, per cent of control (CSNK1A1L (human)) was 100%, the kinase still bound, per cent of control (MAP2K3 (human)) was 5% and the kinase still bound, per cent of control (SIK3 (human)) was 100%. It also gave a kinase still bound, per cent of control (GRK7 (human)) of 10%, a kinase still bound, per cent of control [1] of 100% and a kinase still bound, per cent of control (NUAK2 (human)) of 4.4%. The kinase still bound, per cent of control (NEK2 (human)) was 100%, the kinase still bound, per cent of control (CDC2L2 (human)) was 84% and the kinase still bound, per cent of control (CDK16 (human)) was 93%. For the same molecule, the kinase still bound, per cent of control [2] was 75%, the kinase still bound, per cent of control (NIM1 (human)) was 100% and the kinase still bound, per cent of control (TNK2 (human)) was 18%. It also gave a kinase still bound, per cent of control [3] of 0.1%, a kinase still bound, per cent of control [4] of 2.6% and a kinase still bound, per cent of control (SGK110 (human)) of 13%. It also gave a kinase still bound, per cent of control (PAK6 (human)) of 1.4%, a kinase still bound, per cent of control (FRK (human)) of 84% and a kinase still bound, per cent of control (STK38 (human)) of 100%. It also gave a kinase still bound, per cent of control (CHEK2 (human)) of 31%, a kinase still bound, per cent of control (PRKAA1 (human)) of 59% and a kinase still bound, per cent of control (PKN3 (M.tuberculosis)) of 100%. The kinase still bound, per cent of control (ROCK1 (human)) was 22%, the kinase still bound, per cent of control (ADCK3 (human)) was 100% and the kinase still bound, per cent of control (PAK2 (human)) was 51%. It also gave a kinase still bound, per cent of control (RPS6KA2 KD1 (human)) of 5.4%, a kinase still bound, per cent of control (FES (human)) of 85% and a kinase still bound, per cent of control (MAP2K4 (human)) of 1.2%. For the same molecule, the kinase still bound, per cent of control (DCLK2 (human)) was 100%, the kinase still bound, per cent of control (CDC42BPA (human)) was 94% and the kinase still bound, per cent of control (TESK1 (human)) was 43%. The kinase still bound, per cent of control [5] was 9.4%, the kinase still bound, per cent of control (AURKB (human)) was 32% and the kinase still bound, per cent of control (FGFR1 (human)) was 74%. For the same molecule, the kinase still bound, per cent of control (MATK (human)) was 67%, the kinase still bound, per cent of control (DYRK1A (human)) was 6.4% and the kinase still bound, per cent of control (TSSK1B (human)) was 82%. The kinase still bound, per cent of control (BTK (human)) was 83%, the kinase still bound, per cent of control (LATS2 (human)) was 36% and the kinase still bound, per cent of control (SBK1 (human)) was 82%.
